From US20070072917A1, “Substituted 2-aminotetralin for the treatment of depression” (SRZ Properties, Inc., priority 2003, published 2007)
“Also recorded” adds a separate entry of the source.

Experiments:
bulbectomised rats = assay: bulbectomy study (olfactory bulbs removed on both sides); type: in vivo, Sprague-Dawley rats; details: low doses, 3 minutes on test field
Method: In a further animal model (embodiment 3), it was examined whether the antidepressive effects of rotigotine can be distinguished from a general motor stimulation. In this case, rotigotine was administered to rats whose olfactory bulbs had been removed on both sides. The removal of the olfactory bulb leads to an adaptive hyperactivity in the untreated control group. It is known from literature that chronically administered antidepressants lead to a reduction in the movement activity of the animals in this model, whereas stimulants further increase the motor activity (van Riezen H et al, Br J. Pharmacol. 60(4), 1977, 521; Kelly J P et al, Pharmacol Ther. 74(3), 1997, 299). Therefore, it is possible to discriminate between antidepressive and non-specific stimulatory effects of an active ingredient with this model. […] The bulbectomy study was carried out on Sprague-Dawley rats. A sham-operated group, which was operated on without removal of the olfactory bulbs, served as a control group. 14 days after the operation, the rats were treated with vehicle, a rotigotine depot suspension (every second day) or imipramine. On test days, the rats were placed onto a test field and left to themselves for 3 minutes. The locomotor activities of the animals were thereby measured on the basis of the number of lines crossed.

rats [1] = assay: learned helplessness test; type: in vivo; details: several days of administration, low concentrations / depending on the dose, vs vehicle control (HC)
Method: In the “learned helplessness test”, rats are repeatedly subjected to uncontrollable stress. This brings about an impaired learning ability in the animals in a later situation (for example after 48 hours) in which they could escape the stress again. Following the sub-chronic but not acute administration of antidepressants, the learning ability normalises again and the animals learn to escape the (announced) stress (in time) (Sherman, Pharmacology Biochemistry & Behavior 16, 1982, 449).

rats [2] = assay: forced swim test; type: in vivo; details: repeated swim test, subcutaneously applied
Description: The “forced swim test” is an animal model in which depressive episodes are triggered by acute stress. In this test, rats are forced to swim in a limited space. After initial attempts to save themselves, in which the animals realise the hopelessness of the situation, they lapse into immobility. On repetition of the experiment, the animals remain immobile from the start of the experiment. If the animals are pre-treated with antidepressants, the period of immobility in the repeated test is shortened and the animals generally commence search and escape movements immediately after transfer into the water basin (Porsolt, Biomedicine 30, 1979, 139).

CCCN(CCc1cccs1)C1CCc2c(O)cccc2C1 (single isomer, unassigned; (-)) [rotigotine, (−)-5,6,7,8-tetrahydro-6-[propyl[2-(2-thienyl)ethyl]amino]-1-naphthol]
bulbectomy-induced locomotor hyperactivity (number of lines crossed) (bulbectomised rats): almost complete suppression of the bulbectomy-induced locomotor hyperactivity; also recorded: significant antidepressive effect; also recorded: significantly reduce motor hyperactivity | learning behaviour (rats [1]): significant antidepressive effect | period of immobility (rats [2]): significant antidepressive effect; also recorded: clear reduction in the period of immobility | period of immobility (rats [2]; listed as Rotigotine): significantly shortened period of immobility
